The subject of one data set is IGROV1 xenografts. In words: IGROV1 xenograft in nude mice. The format is in vivo, mouse. How it is done:
(§1) (A) Tumours of IGROV1 xenograft treated with vehicle or CH3 (20 or 40 mg/kg/3days intraperitoneally) for 3 weeks. Ruler scale is in centimeters. (B) Growth curves of IGROV1 xenografts. Data are represented as means ± SEM. ****p < 0.0001. (C) IHC staining against acidic nucleoplasmic DNA‐binding protein 1 (And‐1) and cleaved‐caspase3 antibodies of tumor samples from 3 groups of mice. Scale bar: 50 μm. Lower panel, quantification of And‐1and cleaved‐caspase 3 IHC score in tumors treated in A. ****p < 0.0001. (D) Tumors of MCF7 xenograft treated with vehicle or CH3 (20 or 40 mg/kg/3days intraperitoneally) for 3 weeks. Ruler scale is in centimeters. (E) Growth curves of MCF7 xenografts. Data are represented as means ± SEM. ****p < 0.0001. (F) IHC staining against And‐1 and cleaved‐caspase3 antibodies of tumor samples from three treated groups of mice. Scale bar: 50 μm. Lower panel, quantification of And‐1and cleaved‐caspase 3 IHC score in tumors treated in (D). *p < 0.1; **p < 0.01; ***p < 0.001; ****p < 0.0001
(§2) into subsequent experiment groups.
(§3) represent the longest and shortest diameters, respectively. During the drug treatment, the tumor volume
(§4) and body weight were measured. […]

Data set [1] deals with IGROV1 CR cells. In words: SRB cell viability assay, combination with cisplatin. The data set is classed as cell-based, human. As to conditions: by combination index (CI < 1 synergism). How it is done: The assay was as previously described.[45]
(§5) Synergy of each combination was indicated as combination index (CI) values. […] (C) Tumors of IGROV1 CR xenograft treated with control (vehicle), cisplatin (8 mg/kg/day intraperitoneally), CH3 (20 mg/kg/3days intraperitoneally), or a combination of CH3 and cisplatin for 3 weeks. Ruler scale is in centimeters. (D) Growth curves of IGROV1 CR xenografts. […] (E) IHC staining against And‐1 antibodies of tumor samples from four treated groups of mice. Scale bar: 50 μm. […] Ruler scale is in centimeters. (G) Growth curves of IGROV1 CR xenografts. […] (H) IHC staining against And‐1 antibodies of tumor samples from four treated groups of mice. Scale bar: 50 μm.

The test system of data set [2] is IGROV1 CR cells. In words: Clonogenic assay, combination with cisplatin. The data set is classed as cell-based, human. How it is done: as §5
Another data set deals with MCF7 xenografts. In words: MCF7 xenograft in nude mice. The data set is classed as in vivo, mouse. How it is done: as §1, §2, §3, §4
A further data set has as its system IGROV1 cells. In words: Flow cytometry cell cycle analysis (propidium iodide). The format is cell-based, human. As to conditions: 1 µM, FACS. The text has this:
And‐1 is involved in DNA replication in the S‐phase and is required for the S‐phase progression.[15] We assumed that And‐1 inhibitors should be able to inhibit DNA replication by targeting And‐1.
Supplementary Figure S1. Identification of novel And-1 inhibitors. […]
Molecular weight of each compound was indicated. (C) Flow cytometry
In general terms: A flow cytometer gives signals particle by particle.

Data set [3] relates to 60 human tumour cell lines. In words: NCI-60 one-dose screen, whole panel statistics. As to conditions: mean growth percentage against all 60 tumor cell lines, 10 μM. The data set is classed as cell-based. How it is done: The NCI‐60 cell line panel includes 60 human tumour cell lines. The effect of CH3 on tumour cell growth was tested at National Cancer Institute, Developmental Therapeutics Program (NCI‐DTP) by following the protocol as described previously.[47]
We next evaluate the inhibitory efficacy of CH3 against a panel of 60 human cancer cell lines at the NCI‐DTP. […] To further compare the efficacy of CH3 in the inhibition of NCI 60 cells, we examined the inhibitory effects of CH3 on 60 cells by using five doses of CH3.
FIGURE 5 The effect of CH3 treatment in the NCI‐60 human tumor cell line panel. (A) Mean graph display of NCI‐60 cell line screening data for CH3. The presented result is a one‐dose mean graph display of NCI‐60 cell line screening data for CH3 at 10 μM. The number reported for the one‐dose assay is growth relative to the no‐drug control. Bars deflecting to the right of the mean indicate relatively high sensitivity, and bars deflecting to the left of the mean indicate relatively low sensitivity to CH3. Experiments were performed at the NCI‐DTP. (B) Dose–response curves of CH3 for breast and ovarian cell lines from NCI‐60 cell line panel. All cells were tested at the NCI‐DTP in the presence of CH3 at five concentrations (0.01 μM, 0.1 μM, 1 μM, 10 μM and 100 μM). […]

A short description of data set [4]: Toxicity evaluation of treated mice (body weight, H&E staining of organs).
Experimental: To this end, we subcutaneously implanted IGROV1 or MCF7 cells into nude mice to form ovarian or breast tumors, respectively. The mice with these tumors were then treated with vehicle, 20 mg/kg or 40 mg/kg of CH3 via intraperitoneal injection.
To assess the efficacy of the combination of And‐1 inhibitors and cisplatin in vivo, we treated cisplatin resistant IGROV1 CR xenografts with vehicle, And‐1 inhibitors, cisplatin or a combination of cisplatin and And‐1 inhibitor via intraperitoneal injection.
week old female BALB/c athymic nude mice (CByJ.Cg-Foxn1nu/J, weighting 20-25g, from the Jackson
Laboratory) were inoculated subcutaneously by injecting the OC cells, cisplatin resistant OC cells or
breast cancer cells suspended in 100 µl ice-cold Matrigel/PBS (1:1, V:V; 5 x 10^6/mouse) into the dorsal
flank of each mouse. When the average tumor volume reached 100-150 mm3, the mice were randomized
into subsequent experiment groups. For tumors treated with CH3 only, CH3 was given at 0 mg/kg, 20
mg/kg and 40 mg/kg twice a week for three weeks.
were then given intraperitoneally at 8 mg/kg, 20 mg/kg and 2 mg/kg respectively twice a week for three
During the drug treatment, the tumor volume and body weight were measured.

Regarding `OB1OCc2cc(/C=C/c3ccc(Cl)c(Cl)c3)ccc21` [CH3, (E)‐5‐(3,4‐dichlorostyryl)benzo[c][1,2]oxaborol‐1(3H)‐ol], the “And‐1 expression in tumor tissues (IHC)” value in the data set with IGROV1 xenografts (IGROV1 xenograft tumors) and with MCF7 xenografts (MCF7 xenograft tumors) was “inhibited And‐1 expression” throughout. In addition, the “cleaved caspase‐3 expression in tumor tissues (IHC)” value in the data set on IGROV1 xenografts (IGROV1 xenograft tumors) and in the data set on MCF7 xenografts (MCF7 xenograft tumors) was “induced the expression of cleaved caspase‐3” each time. Further, the tumor growth entry in the data set with IGROV1 xenografts (ovarian IGROV1 xenografts, nude mice, 20 mg/kg or 40 mg/kg intraperitoneal, 3 weeks) was “significantly reduced tumor growth”; in the data set with MCF7 xenografts (breast MCF7 xenografts, nude mice, 20 mg/kg or 40 mg/kg intraperitoneal, 3 weeks) it was “significantly reduced tumor growth”. In addition, the “synergy with cisplatin to inhibit cell proliferation” value with IGROV1 CR cells [1] is “significant synergy with cisplatin”. Also, the “synergy with cisplatin to reduce clonogenic capacity” value with IGROV1 CR cells [2] is on record as “great synergy with cisplatin”. Moreover, the “percentage of cells in the S‐phase” value with IGROV1 cells was “reduced the percentage of cells in the S‐phase”. The “Growth Percent (Mean)” value in data set [3] came out at 1.84%. In addition, the “toxicity of combination with cisplatin: body weight and organs (heart, liver, kidney, lung)” value in data set [4] (IGROV1 CR xenograft mice, cisplatin 8 mg/kg + CH3 20 mg/kg or BZA 2 mg/kg) is given as “no obvious systemic toxicity or side effect”. Also, in data set [4] (xenograft mice, CH3 20 or 40 mg/kg intraperitoneal), the “toxicity: body weight; H&E staining of heart, liver, kidney and lung” value is listed as “did not observe systemic toxicity or obvious side effects”.
